Measurements from paper PMC2982120 (2010).

T1: Jen1p (Saccharomyces cerevisiae, UniProt P36035)
T1 sequence (P36035 2-616): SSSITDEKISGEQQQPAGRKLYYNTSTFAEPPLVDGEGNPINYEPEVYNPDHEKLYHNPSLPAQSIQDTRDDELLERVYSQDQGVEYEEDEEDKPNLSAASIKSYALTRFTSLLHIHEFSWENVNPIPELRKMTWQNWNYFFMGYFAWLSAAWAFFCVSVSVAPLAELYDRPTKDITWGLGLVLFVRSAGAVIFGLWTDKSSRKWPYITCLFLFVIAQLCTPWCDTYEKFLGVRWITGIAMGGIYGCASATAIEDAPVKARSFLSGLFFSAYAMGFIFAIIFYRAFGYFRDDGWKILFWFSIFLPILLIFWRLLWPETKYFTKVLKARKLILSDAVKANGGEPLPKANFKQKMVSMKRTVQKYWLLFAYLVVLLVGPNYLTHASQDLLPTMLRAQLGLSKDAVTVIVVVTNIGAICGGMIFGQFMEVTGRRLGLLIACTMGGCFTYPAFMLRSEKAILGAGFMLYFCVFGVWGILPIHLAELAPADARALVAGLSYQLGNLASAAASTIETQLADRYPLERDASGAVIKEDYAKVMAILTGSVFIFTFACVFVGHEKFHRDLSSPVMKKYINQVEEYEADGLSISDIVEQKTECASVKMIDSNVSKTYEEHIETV


What was measured:
[1] = target: T1, Jen1p; assay: […]-lactate uptake in Jen1p-overexpressing yeast; format: cell-based
[2] = substrate: O=[Se](O)O; assay: selenite uptake; format: cell-based, Saccharomyces cerevisiae; conditions: competitive with lactate

Molecule	Ki [1] [µM]	Km [2] [µM]
CC(O)C(=O)O (centres unmarked) [lactate]	900	–
Jen1p (Saccharomyces cerevisiae S288C) (protein) SSSITDEKISGEQQQPAGRKLYYNTSTFAEPPLVDGEGNPINYEPEVYNPDHEKLYHNPSLPAQSIQDTRDDELLERVYSQDQGVEYEEDEEDKPNLSAASIKSYALTRFTSLLHIHEFSWENVNPIPELRKMTWQNWNYFFMGYFAWLSAAWAFFCVSVSVAPLAELYDRPTKDITWGLGLVLFVRSAGAVIFGLWTDKSSRKWPYITCLFLFVIAQLCTPWCDTYEKFLGVRWITGIAMGGIYGCASATAIEDAPVKARSFLSGLFFSAYAMGFIFAIIFYRAFGYFRDDGWKILFWFSIFLPILLIFWRLLWPETKYFTKVLKARKLILSDAVKANGGEPLPKANFKQKMVSMKRTVQKYWLLFAYLVVLLVGPNYLTHASQDLLPTMLRAQLGLSKDAVTVIVVVTNIGAICGGMIFGQFMEVTGRRLGLLIACTMGGCFTYPAFMLRSEKAILGAGFMLYFCVFGVWGILPIHLAELAPADARALVAGLSYQLGNLASAAASTIETQLADRYPLERDASGAVIKEDYAKVMAILTGSVFIFTFACVFVGHEKFHRDLSSPVMKKYINQVEEYEADGLSISDIVEQKTECASVKMIDSNVSKTYEEHIETV	–	910 ± 130
